Results taken from patent US8916702B2 (priority 2012, dated 2014).
Read-outs that look alike come from different tables or passages of the source.

Test system: HCV pseudoparticles (genotype 1a HCV E1 and E2 envelope, H77C isolate)
Experiment: microbe, parasite or virus in culture
Format: cell-based
Details: Hepatitis C virus
[1] = Huh-7, 48 h, read-out: Activity (EC50 class), HCV pseudoparticle infection of Huh7 cells, luciferase 2 days after infection, EC50 expressed as class A/B
[2] = Huh-7, 48 h, HCV pseudoparticle infection of Huh7 cells, luciferase 2 days after infection, average of duplicates
[3] = Huh-7, read-out: Activity (EC50 class), HCV pseudoparticles (genotype 1a, H77C) in Huh7 cells, EC50 expressed as class A/B
[4] = Huh-7, 48 h, HCV pseudoparticles (genotype 1a, H77C) in Huh7 cells, average of duplicate, luciferase 2 days after infection

Compound | EC50 [1] | EC50 [3] | other results
COc1ccc(CNC(=O)C(=O)NCC[C@H](NC(=O)c2ccc(Nc3nc(NC4(c5ccc(Cl)cc5)CC4)nc(OCC(F)(F)F)n3)cc2)C(=O)O)cc1 [Compound 1186] | 0.01 to 10 nM |  | 
COC(=O)[C@H](CNC(=O)C(=O)NCC1CCOCC1)NC(=O)c1ccc(Nc2nc(NC3(c4ccc(Cl)cc4)CC3)nc(OCC(F)(F)F)n2)cc1 [Compound 1456] | 0.01 to 10 nM |  | EC50 [2]: 3.45 nM
O=C(NC/C(=N/C(=O)c1ccc(Nc2nc(NC3(c4ccc(Cl)cc4)CC3)nc(OCC(F)(F)F)n2)cc1)C(=O)O)C(=O)Nc1ccc(-c2nnco2)cc1 [Compound 3161] |  | 0.01 to 10 nM | 
O=C(NCc1cccc(F)c1)C(=O)NC[C@H](NC(=O)c1ccc(Nc2nc(NC3(c4ccc(Cl)cc4)CC3)nc(OCC(F)(F)F)n2)cc1)C(=O)O [Compound 1163] | 0.01 to 10 nM |  | 
COc1ccc(NC(=O)C(=O)NCC(C)(C)CNC(=O)c2ccc(Nc3nc(NC4(c5ccc(Cl)cc5)CC4)nc(OCC(F)(F)F)n3)cc2F)c(OC)c1 [Compound 3560] |  | 0.01 to 10 nM | 
CCOc1ccc(NC(=O)C(=O)NC[C@H](NC(=O)c2ccc(Nc3nc(NC4(c5ccc(Cl)cc5)CC4)nc(OCC(F)(F)F)n3)cc2)C(=O)O)cc1 [Compound 3293] |  | 0.01 to 10 nM | 
CC(C)(CNC(=O)C(=O)N1CCc2cc(F)ccc21)CNC(=O)c1ccc(Nc2nc(NC3(c4ccc(Cl)cc4)CC3)nc(OCC(F)(F)F)n2)cc1 [Compound 1585] | 0.01 to 10 nM |  | EC50 [2]: 0.03 nM
O=C(NCCc1ccccn1)C(=O)NCC[C@H](NC(=O)c1ccc(Nc2nc(NC3(c4ccc(Cl)cc4)CC3)nc(OCC(F)(F)F)n2)cc1)C(=O)O [Compound 1326] | 0.01 to 10 nM |  | 
COc1ccc(CNC(=O)C(=O)NC[C@H](NC(=O)c2ccc(Nc3nc(NC4(c5ccc(Cl)cc5)CC4)nc(OCC(F)(F)F)n3)cc2)C(=O)O)c(OC)c1 [Compound 1172] | 0.01 to 10 nM |  | EC50 [2]: 9.26 nM
Cc1ccc(NC(=O)C(=O)NC(C)(C)CNC(=O)c2ccc(Nc3nc(NC4(c5ccc(Cl)cc5)CC4)nc(OCC(F)(F)F)n3)cc2)cc1 [Compound 3417] |  | 0.01 to 10 nM | EC50 [4]: 0.032 nM
Cc1cc(NC(=O)C(=O)N(C)CCCNC(=O)c2ccc(Nc3nc(NC4(c5ccc(Cl)cc5)CC4)nc(OCC(F)(F)F)n3)cc2)no1 [Compound 3446] |  | 0.01 to 10 nM | 
O=C(NCCCNC(=O)c1ccc(Nc2nc(NC3(c4ccc(Cl)cc4)CC3)nc(OCC(F)(F)F)n2)cc1)C(=O)Nc1cccc(F)c1 [Compound 3349] |  | 0.01 to 10 nM | EC50 [4]: 0.041 nM
C=C(C)c1ccccc1NC(=O)C(=O)NCC(C)(C)CNC(=O)c1ccc(Nc2nc(NC3(c4ccc(Cl)cc4)CC3)nc(OCC(F)(F)F)n2)cc1 [Compound 3140] |  | 0.01 to 10 nM | 
O=C(NCCc1cccc(F)c1)C(=O)NCC[C@H](NC(=O)c1ccc(Nc2nc(NC3(c4ccc(Cl)cc4)CC3)nc(OCC(F)(F)F)n2)cc1)C(=O)O [Compound 1333] | 0.01 to 10 nM |  | 
CC(C)(CNC(=O)C(=O)Nc1ccccc1-n1cccn1)CNC(=O)c1ccc(Nc2nc(NC3(c4ccc(Cl)cc4)CC3)nc(OCC(F)(F)F)n2)cc1 [Compound 3015] |  | 0.01 to 10 nM | 
O=C(NCC[C@H](NC(=O)c1ccc(Nc2nc(NC3(c4ccc(Cl)cc4)CC3)nc(OCC(F)(F)F)n2)cc1)C(=O)O)C(=O)Nc1ccccc1F [Compound 1273] | 0.01 to 10 nM |  | 
COC(=O)[C@H](CNC(=O)C(=O)Nc1ccccc1OC)NC(=O)c1ccc(Nc2nc(NC3(c4ccc(Cl)cc4)CC3)nc(OCC(F)(F)F)n2)cc1 [Compound 1256] | 0.01 to 10 nM |  | EC50 [2]: 0.64 nM
COC(=O)[C@H](CNC(=O)C(=O)Nc1ccc(CN2CCS(=O)(=O)CC2)cc1)NC(=O)c1ccc(Nc2nc(NC3(c4ccc(Cl)cc4)CC3)nc(OCC(F)(F)F)n2)cc1 [Compound 3194] |  | 0.01 to 10 nM | 
COC(=O)[C@H](CCNC(=O)C(=O)NCC1CCCCCC1)NC(=O)c1ccc(Nc2nc(NC3(c4ccc(Cl)cc4)CC3)nc(OCC(F)(F)F)n2)cc1 [Compound 1197] | 0.01 to 10 nM |  | 
Cc1ccc(-c2ccc(NC(=O)C(=O)NCC(C)(C)CNC(=O)c3ccc(Nc4nc(NC5(c6ccc(Cl)cc6)CC5)nc(OCC(F)(F)F)n4)cc3)cc2)cc1 [Compound 1565] | 0.01 to 10 nM |  | EC50 [2]: 0.13 nM
